The values that follow come from paper PMC4955774 (Bioorganic & medicinal chemistry, 2016).

Series [1] concerns C. albicans ATCC 64124 (strain B). Kind of series: Antifungal time-kill studies. The format is cell-based, Candida albicans.
In series [2] the test system is 13 fungal strains (yeast and filamentous fungi). Kind of series: In vitro antifungal MIC assay, summary over the whole panel. The note with it: summary statement over the 13 strains. The series is classed as cell-based, Candida and Aspergillus strains.
The test system of series [3] is C. albicans ATCC 10231. Kind of series: In vitro antifungal MIC assay, strain A. The series is classed as cell-based. As to conditions: Candida albicans, ATCC10231, read-out: MIC (MIC-0).
The test system of series [4] is C. albicans ATCC MYA-2876(S). Kind of series: In vitro antifungal MIC assay, strain C. The format is cell-based. As to conditions: Candida albicans, read-out: MIC (MIC-0).
Series [5] relates to C. albicans ATCC MYA-2310(S). Kind of series: In vitro antifungal MIC assay, strain E. The format is cell-based. As to conditions: Candida albicans, read-out: MIC (MIC-0).
Series [6] has as its system C. albicans ATCC MYA-1237(R). Kind of series: In vitro antifungal MIC assay, strain F. The format is cell-based. The note with it: Candida albicans, read-out: MIC (MIC-0).
Series [7] has as its system C. albicans ATCC MYA-1003(R). Kind of series: In vitro antifungal MIC assay, strain G. The series is classed as cell-based. As to conditions: Candida albicans, read-out: MIC (MIC-0).
A short description of series [8]: In vitro cytotoxicity assay, A549. As to conditions: human. The series is classed as cell-based, mammalian.
Series [9] is described as follows: In vitro cytotoxicity assay, BEAS-2B. The format is cell-based, mammalian. The note with it: human.
For series [10], the system named is C. albicans ATCC 10231 (strain A). Kind of series: ROS assay with DCFH-DA dye. As to conditions: 1 h at 35 °C. The format is cell-based, Candida albicans.
Series [11] deals with C. albicans ATCC 10231. As to conditions: strain A; MIC-2 for azoles; previously reported; cited from earlier work.
The test system of series [12] is C. albicans ATCC 64124. As to conditions: strain B; MIC-2 for azoles; previously reported; cited from earlier work.
The subject of series [13] is C. albicans ATCC MYA-2876(S). The note with it: strain C; MIC-2 for azoles; previously reported; cited from earlier work.
Series [14] has as its system C. albicans ATCC 90819(R). As to conditions: strain D; MIC-2 for azoles; previously reported; cited from earlier work.
Series [15] has as its system C. albicans ATCC MYA-2310(S). The note with it: strain E; MIC-2 for azoles; previously reported; cited from earlier work.
Series [16] has as its system C. albicans ATCC MYA-1237(R). The note with it: strain F; MIC-2 for azoles; previously reported; cited from earlier work.
Series [17] deals with C. albicans ATCC MYA-1003(R). The note with it: strain G; MIC-2 for azoles; previously reported; cited from earlier work.
For series [18], the system named is Aspergillus nidulans ATCC 38163. The note with it: strain L, filamentous fungus, previously reported; cited from earlier work.
[19] abbreviates: 1× and 2× respective MIC values.

In brackets after ≈: the same amount, converted by molar mass. Marks after values point to notes of the source that are not given here.

`C[C@@H]1[C@H](O)[C@@H](C)/C=C/C=C/C=C/C=C/C=C/C=C/C=C/[C@H](O[C@@H]2O[C@H](C)[C@@H](O)[C@H](N)[C@@H]2O)C[C@@H]2O[C@](O)(C[C@@H](O)C[C@@H](O)[C@H](O)CC[C@@H](O)C[C@@H](O)CC(=O)O[C@H]1C)C[C@H](O)[C@H]2C(=O)O` [AmB, amphotericin B]: in series [1] (1× MIC), the “Nature of activity in time-kill assay” value is “fungicidal” and the “Time after which fungal cells were completely killed” value turned out to be 9 h.

In the case of `C#CCOc1ccc(-c2nc3ccc(N4CCN(C)CC4)cc3[nH]2)cc1` [Compound 1], the “MIC / antifungal activity over all tested fungal strains” value in series [2] is reported as not below 31.2 µg/mL.

For the compound `CN1CCN(c2ccc3[nH]c(-c4ccc5[nH]c(-c6ccc(O)cc6)nc5c4)nc3c2)CC1` [Compound 2], the MIC in series [3] was 7.8 to 15.6 µg/mL (≈ 18.4 to 36.7 µM); in series [4] it was 7.8 to 15.6 µg/mL (≈ 18.4 to 36.7 µM); in series [5] it was 3.9 to 7.8 µg/mL (≈ 9.19 to 18.4 µM); in series [6] it was 3.9 to 7.8 µg/mL (≈ 9.19 to 18.4 µM); in series [7] it was 7.8 to 15.6 µg/mL (≈ 18.4 to 36.7 µM). Moreover, the “Nature of activity in time-kill assay” value is “fungistatic” in [1] (1× MIC) and “fungicidal” in series [1] (2× MIC). The 50% inhibitory concentration (IC50) at 24 h in series [8] and in [9] was not below 31.2 µg/mL throughout. In addition, in series [10] (setting [19]), the “Intracellular ROS production” value is reported as “significant amount of ROS production”.

Turning to `CCCCCCCCCCCCN1CCN(c2ccc3nc(-c4ccc5nc(-c6ccc(O)cc6)[nH]c5c4)[nH]c3c2)CC1` [Compound 4], the “MIC / antifungal activity over all tested fungal strains” value in [2] is reported as “no activity”. Further, the “Intracellular ROS production” value in series [10] (8 and 16 µg/mL) is “no ROS accumulation”.

Turning to `CCOc1ccc(-c2nc3cc(-c4nc5cc(N6CCN(C)CC6)ccc5[nH]4)ccc3[nH]2)cc1` [Compound 9], the “Nature of activity in time-kill assay” value in series [1] (1× MIC) is on record as “fungistatic”; in series [1] (2× MIC), “fungicidal”. Further, in [10] (setting [19]), the “Intracellular ROS production” value is on record as “significant amount of ROS production”.

For the compound `CCCN1CCN(c2ccc3nc(-c4ccc5nc(-c6ccc(OCC)cc6)[nH]c5c4)[nH]c3c2)CC1` [Compound 11], in series [2], the “MIC / antifungal activity over all tested fungal strains” value is “inactive”.

As to `CCCCCN1CCN(c2ccc3nc(-c4ccc5nc(-c6ccc(OCC)cc6)[nH]c5c4)[nH]c3c2)CC1` [Compound 12], the “MIC / antifungal activity over all tested fungal strains” value in [2] is “inactive”.

As to `CCCCCCCCCCCCOc1ccc(-c2nc3ccc(-c4nc5ccc(N6CCN(C)CC6)cc5[nH]4)cc3[nH]2)cc1` [Compound 13], in [2], the “MIC / antifungal activity over all tested fungal strains” value is on record as “complete loss of antifungal activity”.

For the compound `C#CCOc1ccc(-c2nc3ccc(-c4nc5ccc(N6CCN(C)CC6)cc5[nH]4)cc3[nH]2)cc1` [Compound 14], in series [3], the MIC was in the range of 7.8 to 31.2 µg/mL (≈ 16.9 to 67.5 µM).

As for `C#CCOc1ccc(-c2nc3ccc(-c4nc5ccc(-c6nc7ccc(N8CCN(C)CC8)cc7[nH]6)cc5[nH]4)cc3[nH]2)cc1` [Compound 18], the “MIC / antifungal activity over all tested fungal strains” value in [2] is recorded as not below 31.2 µg/mL.

On to `OC(Cn1cncn1)(Cn1cncn1)c1ccc(F)cc1F` [FLC, fluconazole], for which the “MIC (MIC-2)” value in series [11] was 62.5 ^a µg/mL; in [12] it was >125 ^a µg/mL; in series [13] it was 15.6 ^a µg/mL; in series [14] it was >125 ^a µg/mL; in series [15], >125 ^a µg/mL; in series [16] it was 62.5 ^a µg/mL. The “MIC (MIC-2)” value in [17] is listed as 62.5 ^a µg/mL. The “MIC (MIC-0)” value in series [18] was 62.5 ^a µg/mL.

Take `CCC(C)n1ncn(-c2ccc(N3CCN(c4ccc(OCC5COC(Cn6cncn6)(c6ccc(Cl)cc6Cl)O5)cc4)CC3)cc2)c1=O` (centres unmarked) [ITC, itraconazole]: the “MIC (MIC-2)” value in series [11] was 0.5 ^a µg/mL; in series [12], >62.5 ^a µg/mL; in series [13], 7.8 ^a µg/mL; in [14], 31.2 ^a µg/mL; in series [15] it was 31.2 ^a µg/mL; in [16], 31.2 ^a µg/mL. Moreover, the “MIC (MIC-2)” value in series [17] is 31.2 ^a µg/mL. The “MIC (MIC-0)” value in [18] is recorded as 0.195 ^a µg/mL.

Consider `CC[C@@H]([C@H](C)O)n1ncn(-c2ccc(N3CCN(c4ccc(OC[C@@H]5CO[C@@](Cn6cncn6)(c6ccc(F)cc6F)C5)cc4)CC3)cc2)c1=O` [POS, posaconazole], for which the “MIC (MIC-2)” value in [11] was 0.5 ^a µg/mL; in [12], >62.5 ^a µg/mL; in series [13], 7.8 ^a µg/mL; in [14], 31.2 ^a µg/mL; in series [15], 31.2 ^a µg/mL; in [16], 15.6 ^a µg/mL. Besides, the “MIC (MIC-2)” value in series [17] was 15.6 ^a µg/mL. In series [18], the “MIC (MIC-0)” value is on record as 0.195 ^a µg/mL.

A word on the MIC: it is the smallest concentration in the dilution series that meets the test's criterion for growth inhibition. Usually IC50 stands for the concentration needed to halve the response being measured. A low value points to inhibition by little substance.
